Results: patent US12042472B2 (pHase Pharmaceuticals LLC, priority 2017, dated 2024)

Assay: in vivo
Conditions: for concentration at 0.033 h: Day 1, hour 0.033, LLQ 1 ng/mL
Protocol: Using a standard, by weight, randomization procedure, 21 male animals (weighing 3.25 to 3.73 kg at randomization), from a total of 36 male experimentally naïve New Zealand White Hra:(NZW)SPF albino rabbits (approximately 6 to 7 months of age), were assigned to the study as presented in Table 5.
To induce an anaphylactic syndrome, animals in Groups 1 to 4 were administered horse serum (0.2μ sterile filtered) via subcutaneous (“SC”) injection at dose volume of 2 mL/animal, followed two days later by an intravenous (“IV”) injection at a dose volume of 2 mL/animal.
Forty-one to 44 days following the beginning of the induction period, the animals were sedated by administration of 2 to 3 mg/kg via IM injection of acepromazine, 0.02 mg/kg via IM injection of buprenorphine and sevoflurane via inhalation.
Following induction of anesthesia, all animals were placed in dorsal recumbency position and an incision was made to locate the right or left femoral artery. An arterial sheath was introduced and advanced into the isolated artery and used to monitor blood pressure. Additionally, an off midline cervical neck incision was made to locate and isolate the left or right external jugular vein for collection of blood and for emergency drug administration, as needed.
Following induction of anesthesia and catheter placement, single or repeated challenge doses of 0.5 to 2 mL of filtered horse serum were administered intravenously to each animal in Groups 1 to 4.
Prior to tablet administration, the mouth of the animal was wet with 0.5 mL of tap water and the mouth was held shut for 15 to 30 seconds to help dissolve the tablet. For IM administration, the injections were made in the right rear flank of each animal.
Each 50 μL aliquot of standard, QC sample, and study sample was mixed with 200 μL of working internal standard solution (25 ng/mL in acetonitrile/methanol (50/50, v/v)). The sample was centrifuged, and a 200 μL aliquot of the resulting supernatant was transferred to a clean 96-well plate. The sample was evaporated and reconstituted with […] of water/formic acid (100/0.1, v/v). An aliquot was injected onto an LC-MS/MS system for analysis.
The liquid chromatography system used an ACE 5 C18 column, 50×2.1 mm (5 μm particle size) with an isocratic flow consisting of water/formic acid (100/0.1, v/v) and methanol/formic acid (100/0.05, v/v) at a flow rate of 400 μL/minute. The analyte and internal standard were detected using an SCIEX API 5000 triple quadrupole LC-MS/MS system equipped with an ESI (TurboIonSpray®) ionization source operated in the positive ion mode.
The lower limit of quantitation was 1 ng/ml and a linear 1/x2 weighting regression analysis was used.
Concentrations less than the lower limit of quantitation (LLOQ, <1.00 ng/mL) were reported as and set to zero. For each animal, the following pharmacokinetic parameters were determined: maximum observed plasma concentration (Cmax), time of maximum observed plasma concentration (Tmax), and area under the plasma concentration-time curve (AUC).
The formulation ratio was calculated using the following formula: Formulation Ratio=Mean AUC0-60 min Buccal Citrate÷Mean AUC0-60 min Buccal No citrate. The Induced Anaphylaxis to Non-induced anaphylaxis ratio was calculated using the following formula: Induced Anaphylaxis:Non-Induced Anaphylaxis=Mean AUC0-60 min Induced Anaphylaxis IM÷Mean AUC0-60 min Non-induced Anaphylaxis IM. Relative bioavailability (expressed as a percent) was calculated using the following formula: Relative Bioavailability=[AUC0-60 min/DoseBuccal (citrate and/or no citrate)]÷[AUC0-60 min/DoseIntramuscular (induced and/or non-induced)]*100.

## CNC[C@H](O)c1ccc(O)c(O)c1 [Epinephrine]
Group 7, dose 0.3 mg, subject 701, male, Day 1, hour 0.333, LLQ 2 ng/mL
  Concentration (ng/mL), plasma epinephrine: BLQ
male, New Zealand White Hra:(NZW)SPF, rabbit, plasma, intramuscular, 0.3 mg, Concentration (ng/mL), plasma epinephrine, Group 7, dose 0.3 mg, subject 701, male, Day 1, hour 0, LLQ 2 ng/mL
  concentration at 0 h: 2.48 ng/mL
male, New Zealand White Hra:(NZW)SPF, rabbit, plasma, intramuscular, 0.3 mg, Concentration (ng/mL), plasma epinephrine, Group 7, dose 0.3 mg, subject 701, male
  concentration at 0.033 h: 2.75 ng/mL
male, New Zealand White Hra:(NZW)SPF, rabbit, plasma, intramuscular, 0.3 mg, Concentration (ng/mL), plasma epinephrine, Group 7, dose 0.3 mg, subject 701, male, Day 1, hour 0.083, LLQ 2 ng/mL
  concentration at 0.083 h: 4.32 ng/mL
male, New Zealand White Hra:(NZW)SPF, rabbit, plasma, intramuscular, 0.3 mg, Concentration (ng/mL), plasma epinephrine, Group 7, dose 0.3 mg, subject 701, male, Day 1, hour 0.125, LLQ 2 ng/mL
  concentration at 0.125 h: 5.73 ng/mL
male, New Zealand White Hra:(NZW)SPF, rabbit, plasma, intramuscular, 0.3 mg, Concentration (ng/mL), plasma epinephrine, Group 7, dose 0.3 mg, subject 701, male, Day 1, hour 0.167, LLQ 2 ng/mL
  concentration at 0.167 h: 4.76 ng/mL
male, New Zealand White Hra:(NZW)SPF, rabbit, plasma, intramuscular, 0.3 mg, Concentration (ng/mL), plasma epinephrine, Group 7, dose 0.3 mg, subject 701, male, Day 1, hour 0.25, LLQ 2 ng/mL
  concentration at 0.25 h: 2.44 ng/mL
male, New Zealand White Hra:(NZW)SPF, rabbit, plasma, intramuscular, 0.3 mg, Concentration (ng/mL), plasma epinephrine, Group 7, dose 0.3 mg, subject 701, male, Day 1, hour 0.5, LLQ 2 ng/mL
  concentration at 0.5 h: 2.06 ng/mL
male, New Zealand White Hra:(NZW)SPF, rabbit, plasma, intramuscular, 0.3 mg, Concentration (ng/mL), plasma epinephrine, Group 7, dose 0.3 mg, subject 701, male, Day 1, hour 0.75, LLQ 2 ng/mL
  concentration at 0.75 h: 2.84 ng/mL
male, New Zealand White Hra:(NZW)SPF, rabbit, plasma, intramuscular, 0.3 mg, Concentration (ng/mL), plasma epinephrine, Group 7, dose 0.3 mg, subject 701, male, Day 1, hour 1, LLQ 2 ng/mL
  concentration at 1 h: 3.1 ng/mL
male, New Zealand White Hra:(NZW)SPF, rabbit, plasma, intramuscular, 0.3 mg, Concentration (ng/mL), plasma epinephrine, Group 7, dose 0.3 mg, subject 703, male, Day 1, hour 0, LLQ 1 ng/mL
  concentration at 0 h: 1.92 ng/mL
male, New Zealand White Hra:(NZW)SPF, rabbit, plasma, intramuscular, 0.3 mg, Concentration (ng/mL), plasma epinephrine, Group 7, dose 0.3 mg, subject 703, male
  concentration at 0.033 h: 8.06 ng/mL
male, New Zealand White Hra:(NZW)SPF, rabbit, plasma, intramuscular, 0.3 mg, Concentration (ng/mL), plasma epinephrine, Group 7, dose 0.3 mg, subject 703, male, Day 1, hour 0.083, LLQ 1 ng/mL
  concentration at 0.083 h: 6.6 ng/mL
male, New Zealand White Hra:(NZW)SPF, rabbit, plasma, intramuscular, 0.3 mg, Concentration (ng/mL), plasma epinephrine, Group 7, dose 0.3 mg, subject 703, male, Day 1, hour 0.125, LLQ 1 ng/mL
  concentration at 0.125 h: 3.53 ng/mL
male, New Zealand White Hra:(NZW)SPF, rabbit, plasma, intramuscular, 0.3 mg, Concentration (ng/mL), plasma epinephrine, Group 7, dose 0.3 mg, subject 703, male, Day 1, hour 0.167, LLQ 1 ng/mL
  concentration at 0.167 h: 2.32 ng/mL
male, New Zealand White Hra:(NZW)SPF, rabbit, plasma, intramuscular, 0.3 mg, Concentration (ng/mL), plasma epinephrine, Group 7, dose 0.3 mg, subject 703, male, Day 1, hour 0.25, LLQ 1 ng/mL
  concentration at 0.25 h: 3.5 ng/mL
male, New Zealand White Hra:(NZW)SPF, rabbit, plasma, intramuscular, 0.3 mg, Concentration (ng/mL), plasma epinephrine, Group 7, dose 0.3 mg, subject 703, male, Day 1, hour 0.333, LLQ 1 ng/mL
  concentration at 0.333 h: 3.78 ng/mL
male, New Zealand White Hra:(NZW)SPF, rabbit, plasma, intramuscular, 0.3 mg, Concentration (ng/mL), plasma epinephrine, Group 7, dose 0.3 mg, subject 703, male, Day 1, hour 0.5, LLQ 1 ng/mL
  concentration at 0.5 h: 2.86 ng/mL
male, New Zealand White Hra:(NZW)SPF, rabbit, plasma, intramuscular, 0.3 mg, Concentration (ng/mL), plasma epinephrine, Group 7, dose 0.3 mg, subject 703, male, Day 1, hour 0.75, LLQ 1 ng/mL
  concentration at 0.75 h: 5.36 ng/mL
male, New Zealand White Hra:(NZW)SPF, rabbit, plasma, intramuscular, 0.3 mg, Concentration (ng/mL), plasma epinephrine, Group 7, dose 0.3 mg, subject 703, male, Day 1, hour 1, LLQ 1 ng/mL
  concentration at 1 h: 5.17 ng/mL
male, New Zealand White Hra:(NZW)SPF, rabbit, plasma, intramuscular, 0.3 mg, Concentration (ng/mL), plasma epinephrine, Subject Group 3, dose 0.3 mg, male rabbits, Day 1, Hour 0
  concentration at 0 h: 2.29 ng/mL
male, New Zealand White Hra:(NZW)SPF, rabbit, plasma, other: sublingual/buccal tablet, 35 mg, Concentration (ng/mL), plasma epinephrine, Group 2, dose 35 mg, subject 306, male, Day 1, hour 1, LLQ 2 ng/mL
  concentration at 1 h: 10.6 ng/mL
